Tested on: SK-OV-3 tumor lines
Experiment: SK-OV-3 tumor in nude mouse, average tumor weight
Type: in vivo
Method: 2-Methoxycarbonylamino-4,5,6,7-tetrafluorobenzimidazole (tetrafluoro) was used to treat SK-OV-3 tumor lines in nude mouse. The average tumor weight is reported in mg. The control was the vehicle given twice a week and also 5 times a week. The 2-methoxycarbonyl-amino-4,5,6,7- tetrafluorobenzimidazole was also given on this same schedule. Both compounds were administered by oral gavage.

## COC(=O)Nc1nc2c(F)c(F)c(F)c(F)c2[nH]1 [Tetrafluoro, 2-Methoxycarbonylamino-4,5,6,7-tetrafluorobenzimidazole]
2000 mg/kg 2x wkly, oral gavage, day 1
  Average Tumor Weight: 58.5 mg
2000 mg/kg 2x wkly, oral gavage, day 5
  Average Tumor Weight: 108.1 mg
2000 mg/kg 2x wkly, oral gavage, day 9
  Average Tumor Weight: 246.8 mg
2000 mg/kg 2x wkly, oral gavage, day 12
  Average Tumor Weight: 476.2 mg
2000 mg/kg 2x wkly, oral gavage, day 15
  Average Tumor Weight: 770 mg
2000 mg/kg qdx5, oral gavage, day 1
  Average Tumor Weight: 59.1 mg
2000 mg/kg qdx5, oral gavage, day 5
  Average Tumor Weight: 106.2 mg
2000 mg/kg qdx5, oral gavage, day 9
  Average Tumor Weight: 255.8 mg
2000 mg/kg qdx5, oral gavage, day 12
  Average Tumor Weight: 381.7 mg
2000 mg/kg qdx5, oral gavage, day 15
  Average Tumor Weight: 781.2 mg
4000 mg/kg 2x wkly, oral gavage, day 1
  Average Tumor Weight: 59.5 mg
4000 mg/kg 2x wkly, oral gavage, day 5
  Average Tumor Weight: 98.6 mg
4000 mg/kg 2x wkly, oral gavage, day 9
  Average Tumor Weight: 204 mg
4000 mg/kg 2x wkly, oral gavage, day 12
  Average Tumor Weight: 336.6 mg
4000 mg/kg 2x wkly, oral gavage, day 15
  Average Tumor Weight: 672.9 mg
4000 mg/kg qdx5, oral gavage, day 1
  Average Tumor Weight: 59.5 mg
4000 mg/kg qdx5, oral gavage, day 5
  Average Tumor Weight: 66.1 mg
4000 mg/kg qdx5, oral gavage, day 9
  Average Tumor Weight: 150.8 mg
4000 mg/kg qdx5, oral gavage, day 12
  Average Tumor Weight: 160.7 mg
4000 mg/kg qdx5, oral gavage, day 15
  Average Tumor Weight: 315.8 mg
SK-OV-3 tumor, nude mouse, oral gavage
  effect on the growth of the tumor: dose responsive effect

From patent publication US20010047021A1, “Cancer treatment” (The Procter & Gamble Company, priority 2000, published 2001)
